Source: PubChem BioAssay AID2060620 (Molecular Pharmacology Branch, DTP, NCI, 2025)
pIC50: −log10 of the molar value.

System: 328373-195-R-J1-PDC complex spheroids, viability % test/control
Experiment: Anticancer human tumor 328373-195-R-J1-PDC patient-derived head and neck squamous carcinoma cell line growth inhibition [CLK]
Conditions: for pIC50: curve of first compound; for viability, T/C: stronger effect = lower value
How it was run: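 Patient-derived tumor cells grown as complex spheroids with HUVEC endothelial cells and mesenchymal stem cells, treated with drug combinations. Concentrations descend in half-log steps from near clinical Cmax, or from 10 microM if Cmax unknown.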

[1] = second compound 0.0316 µM, first compound 0.0316 µM
[2] = second compound 0.0316 µM, first compound 0.1 µM
[3] = second compound 0.1 µM, first compound 0.0316 µM
[4] = second compound 0.1 µM, first compound 0.1 µM
[5] = second compound 0.316 µM, first compound 0.0316 µM
[6] = second compound 0.316 µM, first compound 0.1 µM
[7] = second compound 1 µM, first compound 0.0316 µM
[8] = second compound 1 µM, first compound 0.1 µM
[9] = second compound 3.16 µM, first compound 0.0316 µM
[10] = second compound 3.16 µM, first compound 0.1 µM
[11] = second compound 10 µM, first compound 0.0316 µM
[12] = second compound 10 µM, first compound 0.1 µM
[13] = second compound 0.0316 µM, first compound 0.316 µM
[14] = second compound 0.0316 µM, first compound 1 µM
[15] = second compound 0.0316 µM, first compound 3.16 µM
[16] = second compound 0.0316 µM, first compound 10 µM
[17] = second compound 0.1 µM, first compound 0.316 µM
[18] = second compound 0.1 µM, first compound 1 µM
[19] = second compound 0.1 µM, first compound 3.16 µM
[20] = second compound 0.1 µM, first compound 10 µM
[21] = second compound 0.316 µM, first compound 0.316 µM
[22] = second compound 0.316 µM, first compound 1 µM
[23] = second compound 0.316 µM, first compound 3.16 µM
[24] = second compound 0.316 µM, first compound 10 µM
[25] = second compound 1 µM, first compound 0.316 µM
[26] = second compound 1 µM, first compound 1 µM
[27] = second compound 1 µM, first compound 3.16 µM
[28] = second compound 1 µM, first compound 10 µM
[29] = second compound 3.16 µM, first compound 0.316 µM
[30] = second compound 3.16 µM, first compound 1 µM
[31] = second compound 3.16 µM, first compound 3.16 µM
[32] = second compound 3.16 µM, first compound 10 µM
[33] = second compound 10 µM, first compound 0.316 µM
[34] = second compound 10 µM, first compound 1 µM
[35] = second compound 10 µM, first compound 3.16 µM
[36] = second compound 10 µM, first compound 10 µM
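Note: spheroids exposed to the agents for 7 days.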

Question: How did the pIC50 (second compound 0.0316 µM) turn out when `Cn1ncnc1[C@H]1c2n[nH]c(=O)c3cc(F)cc(c23)N[C@@H]1c1ccc(F)cc1` + CN1CCN(c2cc(C(=O)Nc3cc4cc(-c5cnn(C)c5)ccc4cn3)ccn2)CC1 was run?
Answer: < 7.00

Question: What about the pIC50 (second compound 0.1 µM) of the same compound?
Answer: < 7.00

Question: What about the pIC50 (second compound 0.316 µM) of the same compound?
Answer: > 9.50

Question: What about the pIC50 (second compound 1 µM) of the same compound?
Answer: > 9.50

Question: What about the pIC50 (second compound 3.16 µM) of the same compound?
Answer: > 9.50

Question: What about the pIC50 (second compound 10 µM) of the same compound?
Answer: > 9.50

Question: What about the viability, T/C (second compound 0.0316 µM, first compound 0.000316 µM) of the same compound?
Answer: 93.5%

Question: What about the viability, T/C (second compound 0.0316 µM, first compound 0.001 µM) of the same compound?
Answer: 84.3%

Question: And the viability, T/C (second compound 0.0316 µM, first compound 0.00316 µM)?
Answer: 91.8%

Question: And the viability, T/C (second compound 0.0316 µM, first compound 0.01 µM)?
Answer: 119%

Question: What about the viability, T/C [1] of the same compound?
Answer: 95.1%

Question: And the viability, T/C [2]?
Answer: 82.2%

Question: What about the viability, T/C (second compound 0.1 µM, first compound 0.000316 µM) of the same compound?
Answer: 80.5%

Question: What about the viability, T/C (second compound 0.1 µM, first compound 0.001 µM) of the same compound?
Answer: 78.7%

Question: What about the viability, T/C (second compound 0.1 µM, first compound 0.00316 µM) of the same compound?
Answer: 83.9%

Question: What about the viability, T/C (second compound 0.1 µM, first compound 0.01 µM) of the same compound?
Answer: 86.8%

Question: What about the viability, T/C [3] of the same compound?
Answer: 85.8%

Question: What about the viability, T/C [4] of the same compound?
Answer: 59.7%

Question: And the viability, T/C (second compound 0.316 µM, first compound 0.000316 µM)?
Answer: 29.9%

Question: What about the viability, T/C (second compound 0.316 µM, first compound 0.001 µM) of the same compound?
Answer: 33.9%

Question: And the viability, T/C (second compound 0.316 µM, first compound 0.00316 µM)?
Answer: 28.4%

Question: What about the viability, T/C (second compound 0.316 µM, first compound 0.01 µM) of the same compound?
Answer: 27%

Question: What about the viability, T/C [5] of the same compound?
Answer: 21.4%

Question: What about the viability, T/C [6] of the same compound?
Answer: 18.4%

Question: And the viability, T/C (second compound 1 µM, first compound 0.000316 µM)?
Answer: 0.11%

Question: What about the viability, T/C (second compound 1 µM, first compound 0.001 µM) of the same compound?
Answer: 2%

Question: What about the viability, T/C (second compound 1 µM, first compound 0.00316 µM) of the same compound?
Answer: 2.06%

Question: What about the viability, T/C (second compound 1 µM, first compound 0.01 µM) of the same compound?
Answer: 0.15%

Question: And the viability, T/C [7]?
Answer: 1.32%

Question: And the viability, T/C [8]?
Answer: 2.11%

Question: And the viability, T/C (second compound 3.16 µM, first compound 0.000316 µM)?
Answer: 0.08%

Question: And the viability, T/C (second compound 3.16 µM, first compound 0.001 µM)?
Answer: 0.77%

Question: And the viability, T/C (second compound 3.16 µM, first compound 0.00316 µM)?
Answer: 4.18%

Question: What about the viability, T/C (second compound 3.16 µM, first compound 0.01 µM) of the same compound?
Answer: 0.08%

Question: What about the viability, T/C [9] of the same compound?
Answer: 1.73%

Question: What about the viability, T/C [10] of the same compound?
Answer: 1.99%

Question: And the viability, T/C (second compound 10 µM, first compound 0.000316 µM)?
Answer: 0.17%

Question: What about the viability, T/C (second compound 10 µM, first compound 0.001 µM) of the same compound?
Answer: 0.14%

Question: And the viability, T/C (second compound 10 µM, first compound 0.00316 µM)?
Answer: 1.47%

Question: And the viability, T/C (second compound 10 µM, first compound 0.01 µM)?
Answer: 0.12%

Question: And the viability, T/C [11]?
Answer: 2.53%

Question: And the viability, T/C [12]?
Answer: 1.76%

Question: `Nc1ccn(C2OC(CO)C(O)C2(F)F)c(=O)n1` (stereo unspecified) + CN1CCN(c2cc(C(=O)Nc3cc4cc(-c5cnn(C)c5)ccc4cn3)ccn2)CC1 was tested. Which pIC50 (second compound 0.0316 µM) did it give?
Answer: > 7.50

Question: And the pIC50 (second compound 0.1 µM)?
Answer: > 7.50

Question: What about the pIC50 (second compound 0.316 µM) of the same compound?
Answer: > 7.50

Question: What about the pIC50 (second compound 1 µM) of the same compound?
Answer: > 7.50

Question: And the pIC50 (second compound 3.16 µM)?
Answer: > 7.50

Question: And the pIC50 (second compound 10 µM)?
Answer: > 7.50

Question: And the viability, T/C [1]?
Answer: 3.79%

Question: What about the viability, T/C [2] of the same compound?
Answer: 2.43%

Question: What about the viability, T/C [13] of the same compound?
Answer: 4.26%

Question: And the viability, T/C [14]?
Answer: 2.86%

Question: And the viability, T/C [15]?
Answer: 2.91%

Question: What about the viability, T/C [16] of the same compound?
Answer: 3.08%

Question: What about the viability, T/C [3] of the same compound?
Answer: 4.42%

Question: What about the viability, T/C [4] of the same compound?
Answer: 3.79%

Question: What about the viability, T/C [17] of the same compound?
Answer: 4.8%

Question: What about the viability, T/C [18] of the same compound?
Answer: 3.59%

Question: What about the viability, T/C [19] of the same compound?
Answer: 3.13%

Question: And the viability, T/C [20]?
Answer: 4.21%

Question: And the viability, T/C [5]?
Answer: 4.28%

Question: And the viability, T/C [6]?
Answer: 2.41%

Question: And the viability, T/C [21]?
Answer: 3.74%

Question: And the viability, T/C [22]?
Answer: 1.82%

Question: What about the viability, T/C [23] of the same compound?
Answer: 1.62%

Question: What about the viability, T/C [24] of the same compound?
Answer: 5.1%

Question: What about the viability, T/C [7] of the same compound?
Answer: 0.09%

Question: What about the viability, T/C [8] of the same compound?
Answer: 1.02%

Question: What about the viability, T/C [25] of the same compound?
Answer: 2.83%

Question: And the viability, T/C [26]?
Answer: 0.09%

Question: And the viability, T/C [27]?
Answer: 2.43%

Question: And the viability, T/C [28]?
Answer: 0.07%

Question: And the viability, T/C [9]?
Answer: 1.17%

Question: And the viability, T/C [10]?
Answer: 1.23%

Question: What about the viability, T/C [29] of the same compound?
Answer: 0.12%

Question: What about the viability, T/C [30] of the same compound?
Answer: 1.22%

Question: And the viability, T/C [31]?
Answer: 0.16%

Question: And the viability, T/C [32]?
Answer: 0.38%

Question: And the viability, T/C [11]?
Answer: 2.37%

Question: And the viability, T/C [12]?
Answer: 0.17%

Question: What about the viability, T/C [33] of the same compound?
Answer: 0.7%

Question: And the viability, T/C [34]?
Answer: 0.17%

Question: What about the viability, T/C [35] of the same compound?
Answer: 1.04%

Question: And the viability, T/C [36]?
Answer: 0.35%

Question: Which results are given for `O=c1[nH]cc(F)c(=O)[nH]1` + CN1CCN(c2cc(C(=O)Nc3cc4cc(-c5cnn(C)c5)ccc4cn3)ccn2)CC1?
Answer: pIC50 (second compound 0.0316 µM): 7.23; pIC50 (second compound 0.1 µM): 7.21; pIC50 (second compound 0.316 µM): > 7.50; pIC50 (second compound 1 µM): > 7.50; pIC50 (second compound 3.16 µM): > 7.50; pIC50 (second compound 10 µM): > 7.50; viability, T/C [1]: 76.7%; viability, T/C [2]: 26.6%; viability, T/C [13]: 13.9%; viability, T/C [14]: 9.49%; viability, T/C [15]: 10.6%; viability, T/C [16]: 13.6%; viability, T/C [3]: 74.7%; viability, T/C [4]: 32.6%; viability, T/C [17]: 12.5%; viability, T/C [18]: 10.6%; viability, T/C [19]: 10.2%; viability, T/C [20]: 16.8%; viability, T/C [5]: 25.9%; viability, T/C [6]: 14.3%; viability, T/C [21]: 14.6%; viability, T/C [22]: 7.98%; viability, T/C [23]: 6.74%; viability, T/C [24]: 5.92%; viability, T/C [7]: 0.13%; viability, T/C [8]: 4.38%; viability, T/C [25]: 0.56%; viability, T/C [26]: 0.05%; viability, T/C [27]: 2.73%; viability, T/C [28]: 0.78%; viability, T/C [9]: 0.03%; viability, T/C [10]: 3.69%; viability, T/C [29]: 4.78%; viability, T/C [30]: 0.03%; viability, T/C [31]: 0.16%; viability, T/C [32]: 0.08%; viability, T/C [11]: 0.03%; viability, T/C [12]: 0.64%; viability, T/C [33]: 2.65%; viability, T/C [34]: 0.06%; viability, T/C [35]: 4.08%; viability, T/C [36]: 1.3%
